Experiments:
Solubility test in water = format: physicochemical; conditions: deionized water, thermodynamic from solid
Method: For the solubility test in water, a sample of less than 10 mg was first precisely weighed and taken, and placed into a vial, to which 50 μl of deionized water was added, shaking for 30 seconds and ultrasonic shaking for 1 minute were carried out, and these processes were repeated several times. The water solubility was calculated by measuring the amount of water used to dissolve all the samples.

[1] = Stability confirmation test (impurity formation during storage under severe conditions, liquid chromatography); format: physicochemical
Method: The stability test was carried out for the acid addition salts prepared in the Examples to evaluate the degree to which impurities were formed during storage under severe conditions (moisture-proof condition and high-humidity exposure condition). The results of the stability test under the moisture-proof condition were shown in Table 2 below, and the results of the stability test under the high-humidity exposure condition were shown in Table 3 below. For the stability test, vials containing 10 mg of each sample which was precisely weighed and taken were prepared in the planned quantity, and they were stored by dividing into the moisture-proof condition (60° C. and less than 10% relative humidity) and under the high-humidity exposure condition (60° C. and 95% relative humidity). However, under the high-humidity exposure condition, a stopper of the vial was not used to keep so that the sample is in sufficient contact with a moisture in the air. At a fixed point of time after the initiation of the test, two vials per point of time were taken (number of samples per test n=2). 10 ml of methanol was added to each vial to dissolve the sample, which was then centrifuged. The resulting supernatant was analyzed using a liquid chromatography. The peak area was determined by integration for all detected peaks, and the relative peak area for the main component and the total impurity was calculated and expressed as an average value.

[2] = high-humidity exposure condition (60° C. and 95% relative humidity), After 1 week
[3] = high-humidity exposure condition (60° C. and 95% relative humidity), After 2 weeks
[4] = high-humidity exposure condition (60° C. and 95% relative humidity), After 4 weeks
[5] = high-humidity exposure condition (60° C. and 95% relative humidity), Initial
[6] = moisture-proof condition (60° C. and less than 10% relative humidity), After 2 weeks
[7] = moisture-proof condition (60° C. and less than 10% relative humidity), After 4 weeks
[8] = moisture-proof condition (60° C. and less than 10% relative humidity), Initial

SMILES	solubility (Solubility test in water) [µg/mL]	Peak area of main component (%) [1, 2] [%]	Peak area of total impurities (%) [1, 2] [%]	Peak area of main component (%) [1, 3] [%]	Peak area of total impurities (%) [1, 3] [%]	Peak area of main component (%) [1, 4] [%]	Peak area of total impurities (%) [1, 4] [%]	Peak area of main component (%) [1, 5] [%]	Peak area of total impurities (%) [1, 5] [%]	Peak area of main component (%) [1, 6] [%]	Peak area of total impurities (%) [1, 6] [%]	Peak area of main component (%) [1, 7] [%]	Peak area of total impurities (%) [1, 7] [%]	Peak area of main component (%) [1, 8] [%]	Peak area of total impurities (%) [1, 8] [%]
CNCc1cn(S(=O)(=O)c2cccc(F)c2)c(-c2ccc(F)cc2F)c1OC.O=C(O)CCC(=O)O [Example 2, 1-(5-(2,4-difluorophenyl)-1-((3-fluorophenyl)sulfonyl)-4-methoxy-1H-pyrrol-3-yl)-N-methylmethanamine succinate]	7200	99.56	0.44	99.53	0.47	99.47	0.54	99.55	0.45	99.61	0.39	99.55	0.45	99.55	0.45
CNCc1cn(S(=O)(=O)c2cccc(F)c2)c(-c2ccc(F)cc2F)c1OC.Cl [Example 1, 1-(5-(2,4-difluorophenyl)-1-((3-fluorophenyl)sulfonyl)-4-methoxy-1H-pyrrol-3-yl)-N-methylmethanamine hydrochloride]	11100	99.81	0.19	99.80	0.20	99.80	0.20	99.82	0.18	99.80	0.19	99.80	0.20	99.82	0.18
CNCc1cn(S(=O)(=O)c2cccc(F)c2)c(-c2ccc(F)cc2F)c1OC [Preparation Example, 1-(5-(2,4-difluorophenyl)-1-((3-fluorophenyl)sulfonyl)-4-methoxy-1H-pyrrol-3-yl)-N-methylmethanamine]	< 160														
CNCc1cn(S(=O)(=O)c2cccc(F)c2)c(-c2ccc(F)cc2F)c1OC.O=C(O)C(O)C(O)C(=O)O [Example 3, 1-(5-(2,4-difluorophenyl)-1-((3-fluorophenyl)sulfonyl)-4-methoxy-1H-pyrrol-3-yl)-N-methylmethanamine tartrate]	6900	99.48	0.52	99.43	0.57	99.23	0.77	99.52	0.48	99.54	0.46	99.48	0.52	99.52	0.48
CNCc1cn(S(=O)(=O)c2cccc(F)c2)c(-c2ccc(F)cc2F)c1OC.O=C(O)/C=C/C(=O)O [Example 4, 1-(5-(2,4-difluorophenyl)-1-((3-fluorophenyl)sulfonyl)-4-methoxy-1H-pyrrol-3-yl)-N-methylmethanamine fumarate]	1730 to 2600	99.40	0.60	99.32	0.68	99.30	0.70	99.38	0.62	99.36	0.64	99.37	0.63	99.38	0.62

— patent publication US10487053B2, “Acid addition salt of 1-(5-(2,4-difluorophenyl)-1-((3-fluorophenyl)sulfonyl)-4-methoxy-1H-pyrrol-3-yl)-N-methylmethanamine” (Daewoong Pharmaceutical Co., Ltd., priority 2016, dated 2019)
